Where two headings read alike, the source gives them in different places.
Assays:
S. aureus = experiment: MIC by agar plate dilution method (CLSI); assay type: cell-based, Staphylococcus aureus
Text: (§1) P. aeruginosa strains isolated from patients with cystic fibrosis (CF) were obtained from Children's Hospital and Regional Medical Center (Seattle, Wash.). Clinical isolates of Escherichia coli and Staphylococcus aureus were obtained from The Jones Group Laboratories (JMI; North Liberty, Iowa) and The Clinical Microbiology Institute (CMI; Wilsonville, Oreg.). P. aeruginosa 27853, S. aureus 29213, and E. coli 25922 served as quality control strains^1 and were obtained from The America Type Culture Collection (ATCC; Manassas, Va.). P. aeruginosa ATCC 27853, a fosfomycin and tobramycin susceptible strain, was used in macromolecular biosynthesis and tobramycin uptake experiments. Stock cultures were maintained at −80° C. in Cation-Adjusted Mueller-Hinton Broth (CAMHB) (Remel; Lenexa, Kans.) supplemented with 20% glycerol (VWR: West Chester, Pa.). Cultures for routine use were grown on tryptic soy agar plates+5% sheeps blood (PML Microbiologicals Inc.; Wilsonville, Oreg.) and stored at 4° C.
(§2) MICs were determined by the agar plate dilution method according to CLSI guidelines (National Committee for Clinical Laboratory Standards. M7-A6. 6th ed. Villanova (Pa.): NCCLS, 2003; M100-S14. Villanova (Pa.): NCCLS, 2004).

E. coli = experiment: MIC by agar plate dilution method (CLSI); assay type: cell-based, Escherichia coli
Text: as §1, §2

[1] = system: Cell Wall Synthesis in P. aeruginosa ATCC 27853; experiment: Macromolecular biosynthesis: 3H-N-acetyl-D-glucosamine incorporation; assay type: cell-based, Pseudomonas aeruginosa; conditions: at 2 h relative to no-drug control, single experiment
Method: Picataway, N.J.) and N-acetyl-D-Glucosamine (^3H-NAG) (GE Healthcare Bio-Sciences), respectively (Baum, E Z, Antimicrob Agents Chernother 2001; 45 (11): 3182-3188). A single colony of P. aeruginosa ATCC 27853 was inoculated into 10 mL of CAMHB and incubated for 16 h, at 37° C., 200 rpm in a shaking water bath. […] At various time points, 100 μl aliquots (triplicate) of culture were removed and added to 100 μl of 20% TCA (VWR) in 96-well flat bottom trays (VWR). Plates were incubated on crushed ice for 60 min to precipitate the incorporated ^3H-precursors. Samples were harvested onto glass fibre filters (GFC) (PerkinElmer; Waltham, Mass.). Filters were washed two times with 35 mL of normal saline to remove unincorporated isotope followed by one wash with 35 mL of 90% ETOH (VWR). Filters were dried under a lamp for 1 h to reduce remaining moisture and then sealed in bags containing 5 mL of scintillation cocktail (Betaplate Scint; PerkinElmer). Counts per minute (CPM) were determined using a Wallac MicroBeta Trilux (PerkinElmer). Mean CPM±standard deviation (SD) were determined for each treatment group. Background counts consisting of a media-only sample were subtracted from the no-drug and antibiotic treatment groups. The percent inhibition of incorporation was determined relative to the no-drug controls. The activities of the three drugs were compared by calculating the time to 50% inhibition (T1/2), and statistical differences at each time point were evaluated by the Analysis of Variance (ANOVA; GraphPad Prisma software package 3.03; GraphPad Software, Inc., San Diego, Calif.). Each curve represents 4 replicate experiments, each time point performed in triplicate.

P. aeruginosa ATCC 27853 = experiment: Tobramycin uptake studies (3H-tobramycin); assay type: cell-based, Pseudomonas aeruginosa; conditions: 10 μg/mL fosfomycin, 3H-tobramycin 2.3 μg/mL, FIG. 7
Method: The effects of fosfomycin uptake on tobramycin uptake were determined by measuring uptake of ^3H-tobramycin. A single colony of P. aeruginosa ATCC 27853 was inoculated into 5 mL nutrient broth (NB) (Difco & BBL; Sparks, Md.) and grown overnight at 37° C. with shaking (250 rpm). […] Five milliliter volumes were filtered through 0.45 μm nitrocellulose membrane filters (Whatman Inc., Florham Park, N.J.), pre-soaked with 410 mM MgCl2 (VWR). […] Data were expressed in CPM and represent the mean±SD of four independent experiments. Statistical differences were evaluated by the Student's t-test.

tobramycin sulfate gave an MIC (S. aureus; S. aureus ATCC 29213) of 0.25 µg/mL, an MIC (S. aureus; S. aureus C051) of 0.25 µg/mL and an MIC (S. aureus; S. aureus C053) of 0.25 µg/mL. For the same molecule, the MIC (S. aureus; S. aureus C055) was 0.25 µg/mL, the MIC (S. aureus; S. aureus C057) was 0.5 µg/mL and the MIC (E. coli; E. coli ATCC 25922) was 0.5 µg/mL. For the same molecule, the MIC (E. coli; E. coli C032) was 0.5 µg/mL, the MIC (E. coli; E. coli C036) was 0.5 µg/mL and the MIC (E. coli; E. coli C037) was 4 µg/mL. For the same molecule, the MIC (E. coli; E. coli C294) was 0.5 µg/mL, the “% Inhibition Cell Wall” value ([1]; 0.8 μg/mL) was 4% and the “% Inhibition Cell Wall” value ([1]; 1.6 μg/mL) was 10%. For the same molecule, the “% Inhibition Cell Wall” value ([1]; 3.2 μg/mL) was 36%.
`C[C@@H]1O[C@@H]1P(=O)(O)O` [Fosfomycin, fosfomycin disodium] gave an MIC (S. aureus; Staphylococcus aureus, ATCC29213, S. aureus ATCC 29213, read-out: MIC) of 2 µg/mL, an MIC (S. aureus; Staphylococcus aureus, S. aureus C051, read-out: MIC) of 1 µg/mL and an MIC (S. aureus; Staphylococcus aureus, S. aureus C053, read-out: MIC) of 1 µg/mL. The MIC (S. aureus; Staphylococcus aureus, S. aureus C055, read-out: MIC) was 8 µg/mL, the MIC (S. aureus; Staphylococcus aureus, S. aureus C057, read-out: MIC) was 2 µg/mL and the “increase in 3H-tobramycin uptake relative to the no-fosfomycin control” value (P. aeruginosa ATCC 27853) was 170%. For the same molecule, the MIC (E. coli; Escherichia coli, ATCC25922, E. coli ATCC 25922, read-out: MIC) was 2 µg/mL, the MIC (E. coli; Escherichia coli, E. coli C032, read-out: MIC) was 1 µg/mL and the MIC (E. coli; Escherichia coli, E. coli C036, read-out: MIC) was 2 µg/mL. For the same molecule, the MIC (E. coli; Escherichia coli, E. coli C037, read-out: MIC) was 1 µg/mL, the MIC (E. coli; Escherichia coli, E. coli C294, read-out: MIC) was 0.5 µg/mL and the inhibition at 3.2 µg/mL ([1]; Pseudomonas aeruginosa, ATCC27853, 3.2 μg/mL) was 8%. For the same molecule, the inhibition at 6.4 µg/mL ([1]; Pseudomonas aeruginosa, ATCC27853, 6.4 μg/mL) was 14% and the inhibition at 12.8 µg/mL ([1]; Pseudomonas aeruginosa, ATCC27853, 12.8 μg/mL) was 3%.

Source: patent US20110230431A1, “FOSFOMYCIN/TOBRAMYCIN COMBINATIONS FOR THE TREATMENT AND PREVENTION OF OPHTHALMIC, OTOLOGICAL AND DERMATOLOGICAL INFECTIONS” (Gilead Sciences, Inc., priority 2008, published 2011)
